# Where “and” joins values, the source holds several entries; their conditions need not be identical. Identical values can stand only once. Like-named read-outs stand apart in the source and are kept apart here.
# Columns and labels:
# [1] = target: mouse heart mitochondrial membranes (complex I) (Mus musculus, UniProt P03888+P03899+Q91WD5+Q9DC70); assay: NADH:O2 oxidoreduction by mouse heart mitochondrial membranes; format: biochemical; details: for remaining activity at 130 µM: inhibitor 0.13 mM; for remaining activity at 250 µM: inhibitor 0.25 mM; for remaining activity at 500 µM: inhibitor 0.50 mM; for remaining activity at 1000 µM: inhibitor 1.00 mM; for remaining activity at 5000 µM: inhibitor 5.00 mM; for remaining activity at 10000 µM: inhibitor 10.00 mM; for LogIC50 (best fit value): log of IC50 in mM
# Method: (§1) Complex I and mitochondrial membranes were prepared from Bos taurus (bovine) heart. Intact mitochondria were isolated from rat liver and mouse heart and liver. Membranes were prepared from mouse heart mitochondria by 5 s bursts of sonication at 4 °C and collected by centrifugation (75,000 × g, 1 h).
# (§2) Assays were performed at 32 °C in a SpectraMax 96-well plate reader. NADH:decylubiquinone oxidoreduction by complex I at 0.5 μg mL^−1 was measured in 20 mM Tris-HCl (pH 7.2), 0.15 % soy bean asolectin (Avanti Polar Lipids), and 0.15 % 3-((3-cholamidopropyl)dimethylammonium)-1-propanesulfonate (CHAPS, Merck Chemicals Ltd), with 200 μM decylubiquinone and 200 μM NADH, and monitored using ε340–380(NADH) = 4.81 mM^−1 cm^−1 [23]. Catalysis was initiated by addition of NADH and maximal rates determined by linear regression. NADH:O2 oxidoreduction by membranes was measured similarly but using 5 μg mL^−1 membranes in 10 mM Tris-HCl (pH 7.4) and 250 mM sucrose using 200 μM NADH and supplemented with 0.15 mM horse heart cytochrome c (Sigma-Aldrich Ltd.). Succinate:O2 oxidoreduction was measured using 40 μg mL^−1 membranes in 5 mM succinate in 10 mM Tris-HCl (pH 7.4) as described previously. Control experiments included NaCl (to match the ionic strength) or DMSO, as appropriate.
# (§3) Experimental values are reported as mean averages ± standard deviation (SD) of technical replicates for large sample sizes and mean averages ± standard error of the mean (SEM) of technical replicates for small sample sizes. Data were analyzed by the unpaired two-tailed Student’s t test. IC50 values were determined using the standard dose-effect relationship (activity (%) = 100 × IC50 / (IC50 + [inhibitor]^m) with the Hill Slope (m) set to unity for purified complex I) and are reported with 95 % confidence intervals.
# permeabilized MDBK cells = assay: ADP-stimulated rotenone-sensitive OCR in permeabilized MDBK cells; format: cell-based, Bos taurus; parameters: rotenone sensitive OCR after ADP stimulation, average / rotenone sensitive OCR after ADP stimulation: unit not given here; details: for rotenone sensitive OCR after ADP stimulation, % of control, average / rotenone sensitive OCR after ADP stimulation, average / rotenone sensitive OCR after ADP stimulation / rotenone sensitive OCR after ADP stimulation, % of control: MDBK permeabilised cells; for rotenone sensitive OCR after ADP stimulation, % of control, average / rotenone sensitive OCR after ADP stimulation, average: average of replicates; for rotenone sensitive OCR after ADP stimulation / rotenone sensitive OCR after ADP stimulation, % of control: individual replicates
# Method: For permeabilized cell experiments, cells were seeded into XF96 plates at 0.9–1.1 × 10^4 per well and incubated for 48 h at 37 °C in 5 % CO2. Then, the growth medium was exchanged for assay buffer containing 3 nM plasma membrane permeabilizer ‘PMP’ (Seahorse Biosciences Inc.), 10 mM glutamate, 10 mM malate, 220 mM mannitol, 70 mM sucrose, 10 mM KH2PO4, 5 mM MgCl2, 1 mM EGTA, 0.2 % fatty acid-free bovine serum albumin (BSA), and 2 mM HEPES (pH 7.4 at 37 °C). […] The biguanides were allowed to accumulate for 30 min, then respiration was […] by the addition of 4 mM ADP. Rotenone was added (2 μM) at the end of the experiment.
# Rotenone-sensitive OCRs were calculated by subtracting the rotenone-insensitive rates (determined at the end of the experiment). OCRs were normalized by dividing by the OCR recorded immediately prior to the addition of biguanide. For rate of uptake calculations, the OCRs at time points after biguanide addition were divided by the OCRs at the same time points in control experiments. Data from wells with failed port injections were excluded from the analyses. The respiratory control ratio (RCR) values (state III versus state IV respiration) were ~11 and ~6 for permeabilized MDBK and 143B cells, respectively.
# rat liver mitochondria = assay: ADP-stimulated rotenone-sensitive OCR in isolated rat liver mitochondria; format: biochemical; parameters: rotenone sensitive OCR after ADP stimulation, individual replicates / rotenone sensitive OCR after ADP stimulation, average: unit not given here; details: for rotenone sensitive OCR after ADP stimulation, % of control, average / rotenone sensitive OCR after ADP stimulation, average: average of replicates; for rotenone sensitive OCR after ADP stimulation, % of control, individual replicates / rotenone sensitive OCR after ADP stimulation, individual replicates: replicate 1-5
# Method: as §1
# Isolated mitochondria were monitored using a Seahorse XF96 extracellular flux analyzer at 32 °C. Mouse heart mitochondria, and mouse and rat liver mitochondria were plated into XF96 plates at 4 and 16–20 μg per well, respectively, in 220 mM mannitol, 70 mM sucrose, 10 mM KH2PO4, 5 mM MgCl2, 1 mM EGTA, 0.2 % fatty acid-free BSA, and 2 mM HEPES (pH 7.4 at 37 °C) with 10 mM glutamate and 10 mM malate and adhered by centrifugation (2000 × g, 20 min, 4 °C). The medium was supplemented with a further 5 mM glutamate and 5 mM malate and the mitochondria incubated for 15 min. Then two baseline readings were taken before the biguanides were added at IC50/5. Biguanides were allowed to accumulate for 15–20 min before respiration was […] by the addition of 4 mM ADP. Rotenone (2 μM) was added at the end of the experiment. Data from wells with failed port injections were excluded from the analyses. The RCR values (state III versus state IV respiration) were 3.4, 4.8, and 4.6 for mouse heart, rat liver, and mouse liver, respectively.
# [2] = target: bovine heart mitochondrial membranes (complex I) (Bos taurus, UniProt P03887+P03898+P17694+P42026); assay: NADH:O2 oxidoreduction by bovine heart mitochondrial membranes (complexes I-III-IV); format: biochemical
# Method: as §1, §2, §3
# [3] = read-out: average % (rate, % of no-inhibitor control)
# bovine heart mitochondrial membranes (complex I), sequence (P42026 38-216): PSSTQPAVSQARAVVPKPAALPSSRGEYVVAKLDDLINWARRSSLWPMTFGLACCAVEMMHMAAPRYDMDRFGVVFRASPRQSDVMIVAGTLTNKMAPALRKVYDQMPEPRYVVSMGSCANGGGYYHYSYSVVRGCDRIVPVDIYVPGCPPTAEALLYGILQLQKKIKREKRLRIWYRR
# bovine heart mitochondrial membranes (complex I), sequence (P17694 34-463): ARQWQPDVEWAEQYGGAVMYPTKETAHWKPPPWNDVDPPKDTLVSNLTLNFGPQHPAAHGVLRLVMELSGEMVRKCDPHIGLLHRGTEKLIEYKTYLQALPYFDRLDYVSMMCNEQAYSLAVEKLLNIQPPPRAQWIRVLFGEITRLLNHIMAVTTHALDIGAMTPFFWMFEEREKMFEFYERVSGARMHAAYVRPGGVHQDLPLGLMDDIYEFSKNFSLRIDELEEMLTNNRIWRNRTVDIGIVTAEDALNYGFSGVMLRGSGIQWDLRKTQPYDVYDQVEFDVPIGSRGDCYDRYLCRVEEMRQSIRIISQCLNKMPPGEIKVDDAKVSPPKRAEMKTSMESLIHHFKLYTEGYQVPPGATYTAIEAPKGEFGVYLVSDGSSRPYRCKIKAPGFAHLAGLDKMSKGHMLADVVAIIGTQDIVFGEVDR
# bovine heart mitochondrial membranes (complex I), sequence (P03887 whole entry): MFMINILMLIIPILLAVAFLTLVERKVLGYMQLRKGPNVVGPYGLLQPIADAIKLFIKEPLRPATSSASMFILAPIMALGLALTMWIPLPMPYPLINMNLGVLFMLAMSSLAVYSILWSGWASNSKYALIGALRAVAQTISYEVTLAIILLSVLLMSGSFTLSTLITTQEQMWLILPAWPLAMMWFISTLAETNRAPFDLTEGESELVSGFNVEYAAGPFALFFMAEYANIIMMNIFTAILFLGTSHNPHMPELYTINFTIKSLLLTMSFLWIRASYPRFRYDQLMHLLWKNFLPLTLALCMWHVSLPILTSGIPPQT
# bovine heart mitochondrial membranes (complex I), sequence (P03898 whole entry): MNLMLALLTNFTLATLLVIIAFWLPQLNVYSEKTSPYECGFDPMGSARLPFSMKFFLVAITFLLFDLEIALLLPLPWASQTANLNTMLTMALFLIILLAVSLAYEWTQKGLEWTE
# mouse heart mitochondrial membranes (complex I), sequence (P03899 whole entry): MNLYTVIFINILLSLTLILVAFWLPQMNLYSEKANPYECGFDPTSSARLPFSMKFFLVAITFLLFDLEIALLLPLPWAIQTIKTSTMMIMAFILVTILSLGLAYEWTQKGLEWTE
# mouse heart mitochondrial membranes (complex I), sequence (P03888 whole entry): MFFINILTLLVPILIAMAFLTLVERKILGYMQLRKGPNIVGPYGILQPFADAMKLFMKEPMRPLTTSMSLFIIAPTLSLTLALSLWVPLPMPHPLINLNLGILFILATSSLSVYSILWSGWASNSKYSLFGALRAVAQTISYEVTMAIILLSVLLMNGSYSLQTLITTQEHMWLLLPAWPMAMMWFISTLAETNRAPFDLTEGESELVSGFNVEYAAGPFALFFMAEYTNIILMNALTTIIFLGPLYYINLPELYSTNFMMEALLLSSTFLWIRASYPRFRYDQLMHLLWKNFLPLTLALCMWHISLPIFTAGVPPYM
# mouse heart mitochondrial membranes (complex I), sequence (Q9DC70 36-224): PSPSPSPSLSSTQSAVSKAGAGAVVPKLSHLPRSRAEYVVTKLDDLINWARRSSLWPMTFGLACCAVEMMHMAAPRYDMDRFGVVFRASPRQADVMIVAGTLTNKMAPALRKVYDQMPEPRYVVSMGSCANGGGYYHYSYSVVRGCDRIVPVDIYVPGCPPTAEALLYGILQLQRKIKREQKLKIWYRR
# mouse heart mitochondrial membranes (complex I), sequence (Q91WD5 34-463): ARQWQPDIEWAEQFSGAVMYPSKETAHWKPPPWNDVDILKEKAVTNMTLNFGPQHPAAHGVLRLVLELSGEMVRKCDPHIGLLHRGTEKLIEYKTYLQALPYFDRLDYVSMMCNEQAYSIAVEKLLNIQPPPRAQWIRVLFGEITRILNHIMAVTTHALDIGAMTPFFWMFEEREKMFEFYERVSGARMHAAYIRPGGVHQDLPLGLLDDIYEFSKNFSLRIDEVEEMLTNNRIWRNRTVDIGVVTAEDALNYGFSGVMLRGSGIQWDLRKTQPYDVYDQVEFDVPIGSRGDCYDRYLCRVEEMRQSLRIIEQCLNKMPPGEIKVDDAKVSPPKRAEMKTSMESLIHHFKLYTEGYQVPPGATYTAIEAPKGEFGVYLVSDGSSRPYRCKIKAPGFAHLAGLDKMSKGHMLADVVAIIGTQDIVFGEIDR
SMILES,HillSlope (best fit value) ([1]; Prism variable slope fit),"remaining activity at 130 µM [1, 3] [%]","remaining activity at 250 µM [1, 3] [%]","remaining activity at 500 µM [1, 3] [%]","remaining activity at 1000 µM [1, 3] [%]","remaining activity at 5000 µM [1, 3] [%]","remaining activity at 10000 µM [1, 3] [%]",LogIC50 (best fit value) ([1]; Prism variable slope fit),"rotenone sensitive OCR after ADP stimulation, % of control, average (permeabilized MDBK cells)","rotenone sensitive OCR after ADP stimulation, average (permeabilized MDBK cells)","rotenone sensitive OCR after ADP stimulation, % of control, average (permeabilized MDBK cells; biguanide at IC50/5)","rotenone sensitive OCR after ADP stimulation, average (permeabilized MDBK cells; biguanide at IC50/5)",rotenone sensitive OCR after ADP stimulation (permeabilized MDBK cells; biguanide at IC50/5),"rotenone sensitive OCR after ADP stimulation, % of control (permeabilized MDBK cells; biguanide at IC50/5)","rotenone sensitive OCR after ADP stimulation, % of control, average (rat liver mitochondria)","rotenone sensitive OCR after ADP stimulation, average (rat liver mitochondria)","rotenone sensitive OCR after ADP stimulation, % of control, individual replicates (rat liver mitochondria)","rotenone sensitive OCR after ADP stimulation, individual replicates (rat liver mitochondria)",further results
"NC(N)=NC(N)=NCc1ccccc1 [compound 3, 2-benzyl-1-(diaminomethylidene)guanidine]",-1.132,99.2,93.8,86.3,85,35.4,25.3,0.5023,12.04 % of control,33.92,12.04 % of control,33.92,60.28 and 86.89 and -11.73 and 15.23 and 8.14 and 44.74,21.39 % of control and 30.83 % of control and -4.16 % of control and 5.40 % of control and 2.89 % of control and 15.88 % of control,24.02 % of control,6.59,20.74 % of control and 19.21 % of control and 31.06 % of control and 25.09 % of control,5.69 and 5.27 and 8.51 and 6.88,"IC50 ([1]; Prism variable slope fit, Bottom 0, Top 100, read-out: IC50 (best fit value)): 3180 µM; inhibition of OCR (permeabilized MDBK cells; MDBK cells, 30 min, data used for Fig. 4c matrix concentration estimate): exceeded 90%; accumulation into mitochondria (matrix concentration relative to extracellular medium) (permeabilized MDBK cells; permeabilized MDBK cells, after 30 min of biguanide exposure, IC50/5): more than 200 fold; remaining activity at 50 µM ([2]; bovine heart mitochondrial membranes, inhibitor 0.05 mM, read-out: average % (rate, % of no-inhibitor control)): 88.7%; remaining activity at 120 µM ([2]; bovine heart mitochondrial membranes, inhibitor 0.12 mM, read-out: average % (rate, % of no-inhibitor control)): 76.2%; remaining activity at 250 µM ([2]; bovine heart mitochondrial membranes, inhibitor 0.25 mM, read-out: average % (rate, % of no-inhibitor control)): 69.2%; remaining activity at 500 µM ([2]; bovine heart mitochondrial membranes, inhibitor 0.50 mM, read-out: average % (rate, % of no-inhibitor control)): 55.6%; remaining activity at 1250 µM ([2]; bovine heart mitochondrial membranes, inhibitor 1.25 mM, read-out: average % (rate, % of no-inhibitor control)): 44.4%; remaining activity at 2500 µM ([2]; bovine heart mitochondrial membranes, inhibitor 2.50 mM, read-out: average % (rate, % of no-inhibitor control)): 37.2%; remaining activity at 5000 µM ([2]; bovine heart mitochondrial membranes, inhibitor 5.00 mM, read-out: average % (rate, % of no-inhibitor control)): 31.2%; LogIC50 (best fit value) ([2]; log of concentration in mM, sample given as Bovine heart mitochondrial membranes, Prism variable slope fit, Bottom 0, Top 100): -0.01339; IC50 ([2]; sample given as Bovine heart mitochondrial membranes, Prism log(inhibitor) vs. response variable slope fit (four parameters), Bottom 0, Top 100, read-out: IC50 (best fit value)): 970 µM; HillSlope (best fit value) ([2]; sample given as Bovine heart mitochondrial membranes, Prism variable slope fit, Bottom 0, Top 100): -0.5756"
"[H]/N=C(/N)N/C(=N/[H])NCCc1ccccc1 [phenformin, reference compound]",-0.7733,80.6,70.4,59.3,46.6,18.7,12.3,-0.09624,14.11 % of control,39.76,14.11 % of control,39.76,45.64 and 68.90 and 0.07 and 37.54 and 39.83 and 25.16 and 62.96 and 38.03,16.19 % of control and 24.45 % of control and 0.025 % of control and 13.32 % of control and 14.13 % of control and 8.93 % of control and 22.34 % of control and 13.49 % of control,22.17 % of control,6.08,23.43 % of control and 20.89 % of control and 22.08 % of control and 22.26 % of control,6.42 and 5.73 and 6.05 and 6.10,"remaining activity at 2000 µM ([1]; inhibitor 2.00 mM, read-out: average % (rate, % of no-inhibitor control)): 33.2%; IC50 ([1]; read-out: IC50 (best fit value), Prism variable slope fit, Bottom 0, Top 100): 801 µM"
